Entries after “also recorded” stand apart in the source; their conditions may differ. Structures can show the parent of a compound that is named as a salt.
Assays:
[1] = tested on: mouse partial sciatic nerve ligation model (neuropathic pain); assay: Mouse partial sciatic nerve ligation model (Seltzer model), von Frey test; format: in vivo; settings: oral administration, von Frey test at 1, 2, 3 h
Experimental: The mouse partial sciatic nerve ligation model was prepared in accordance with the method of Seltzer et al. (Malmberg et al., Pain, vol. 76, p. 215-222, 1998).
Slc: ICR mice (5 weeks old, male; from Japan SLC, Inc.) or Cr1: CD1 (ICR) mice (5 weeks old, male; from CHARLES RIVER LABORATORIES JAPAN, INC.) were anesthetized with sodium pentobarbital (70 mg/kg, intraperitoneal administration). The sciatic nerve at the femoral region of the right hind paw of each mouse was exposed and triply ligated tightly with silk suture of 8-0 (from NATSUME SEISAKUSHO CO., LTD.) under a stereomicroscope so that only half thickness of the nerve was trapped in the ligature. A group of mice thus treated was designated as a partial sciatic nerve ligation group. A group of mice whose sciatic nerve was just exposed and not ligated was designated as a sham surgery group.
Evaluation of neuropathic pain (hereinafter referred to as von Frey test) was performed as follows. Mice were conditioned for at least one hour in an acrylic cage for measurement (from NATSUME SEISAKUSHO CO. LTD. or SHINANO SEISAKUSHO) placed on a wire net. Thereafter, using a filament (from North Coast Medical or neuroscience) which exerted a pressure of 0.16 g, the mice were subjected to mechanical tactile stimulus by applying the filament to the plantar surface of the right hind paw 3 times, each for 3 seconds, with an interval of 3 seconds.
Seven days after the sciatic nerve ligation surgery, the compound of Example 1, 2, 3, 4, 5, 7, 8, 9, 10, 11, 12 or 13 (10 mg/kg for each of the compounds of Example 1, 2, 3, 4, 5, 8, 10 and 13, 0.01 to 1 mg/kg for the compound of Example 7, 0.01 to 10 mg/kg for the compound of Example 9; 0.001 to 0.1 mg/kg for the compound of Example 11; and 0.01 to 1 mg/kg for the compound of Example 12) or pregabalin as a positive control (10 mg/kg; Bosche Scientific) was dissolved in distilled water and orally administered to mice of the partial sciatic nerve ligation group. The groups of the mice in the partial sciatic nerve ligation mouse to which the compound of Example 1, 2, 3, 4, 5, 7, 8, 9, 10, 11, 12 or 13 was administered were designated as a “partial sciatic nerve ligation+the compound of Example 1” group; a “partial sciatic nerve ligation+the compound of Example 2” group; a “partial sciatic nerve ligation+the compound of Example 3” group; a “partial sciatic nerve ligation+the compound of Example 4” group; a “partial sciatic nerve ligation+the compound of Example 5” group; a “partial sciatic nerve ligation+the compound of Example 7” group; a “partial sciatic nerve ligation+the compound of Example 8” group; a “partial sciatic nerve ligation+the compound of Example 9” group; a “partial sciatic nerve ligation+the compound of Example 10” group; a “partial sciatic nerve ligation+the compound of Example 11” group; a “partial sciatic nerve ligation+the compound of Example 12” group; and a “partial sciatic nerve ligation+the compound of Example 13” group, respectively. The partial sciatic nerve ligation mouse group to which pregabalin was administered was designated as a “partial sciatic nerve ligation+pregabalin” group. A group wherein distilled water was orally administered to the mice of the partial sciatic nerve ligation group was designated as a “partial sciatic nerve ligation+distilled water” group. A group wherein distilled water was orally administered to the mice of the sham surgery group was designated as a “sham surgery+distilled water” group.
The von Frey test was carried out before oral administration of a test compound (pre-value), one hour, two hours, and three hours after the oral administration of a test compound.
Slc: ICR mice (5 weeks old, male; Japan SLC, Inc.) were anesthetized with sodium pentobarbital (70 mg/kg, intraperitoneal administration).

[2] = tested on: Canine aortic smooth muscle cells; assay: Inducibility of cytoplasmic vacuolation in canine aortic smooth muscle cells; format: cell-based; set-up: key: Present: The term “present” in the tables means that cytoplasmic vacuolation was observed; Absent: the term “absent” means that cytoplasmic vacuolation was not observed; settings: Concentration: 1.0 mmol/L, Treatment time: 24 hours
Experimental: (§1) As a test compound, the compound of Example 3, 9, 11, 12 or compounds of Comparative Examples 2 to 6 were used. Canine aortic smooth muscle cells (Canine Aortic Smooth Muscle Cells, supply source: Toyobo Co., Ltd.) or human aortic smooth muscle cells of (T/G HA-VSMG, supply source: ATCC) were treated with a test compound (1.0 or 1.2 mmol/L in concentration) for 24 hours or 2 weeks. The cells were stained with HE, immunohistochemically for LAMP-2 or toluidine blue, and thereafter the presence or absence of cytoplasmic vacuolation was determined by using an optical microscope.

[3] = tested on: mouse partial sciatic nerve ligation model (neuropathic pain); assay: Mouse partial sciatic nerve ligation model (Seltzer model), von Frey test; format: in vivo; settings: Comparative Example 7: oral, 7 days after ligation, 1-3 h after dosing; 0.01-1 mg/kg (Comp Ex 1), 10 mg/kg (Comp Ex 3-6, pregabalin); vs ligation+distilled water; t-test corrected by Dunnett
[4] = Pharmacokinetics (PK) test in cynomolgus monkeys; format: in vivo, cynomolgus monkey; settings: male, plasma, cynomolgus monkey
Experimental: Cynomolgus monkeys (4 to 6 years old, male) were raised under the conditions of voluntary intake of solid food (Oriental Yeast Co., Ltd) and tap water and fasted from the evening of the day before initiation of administration and subjected to an experiment. Note that blood was sampled at 4 hours after administration (on and after 16:00), and thereafter feeding was restarted.
Dosing solution for intravenous administration was injected through the saphenous vein by use of a syringe needle (attached to a syringe barrel). The oral administration into the stomach was compulsively carried out by inserting a catheter into the nasal cavity.
The blood sampled was centrifuged at 4° C. and 1800×g for 15 minutes to obtain the plasma. The plasma thus obtained was stored at about −80° C. until use in preparation of analysis samples. The plasma obtained from a cynomolgus monkey to which a test compound was administrated, is referred to as a plasma sample; whereas the plasma obtained from a cynomolgus monkey to which a test compound was not administered, is referred to as the blank plasma.
(§2) The resulting solution was vortexed and cooled at 4° C. for 10 minutes. A sample for a calibration curve was prepared by adding a standard solution for a calibration curve to the blank plasma and subjecting the resulting mixture to the same treatment. After cooling, each of the samples was spun at 4° C. and 2000 rpm for 10 minutes by a centrifuge (Hitachi Koki Co., Ltd.). The resulting supernatant was used as a sample for LC/MS/MS analysis.
as §2, with “diluted 10 fold with 70 vol % acetonitrile containing 0.1 vol % formic acid and subjected” for “used”, “analysis. The LC/MS/MS analysis conditions were as follows:” for “analysis.”
The test-compound concentrations in the plasma at each sampling time point in the case of intravenous administration or oral administration were calculated and PK analysis was carried out for individual monkeys. PK parameters were calculated by using WinNonlin (Pharsight), in accordance with an analysis independent of a model (intravenous administration: Bolus IV Administration, oral administration: Extravascular Administration; Weight=1/y in both administrations). Furthermore, bioavailability (BA) was calculated based on the following Expression (3) by dividing AUC0-∞iv (time 0 to ∞) at the time of the intravenous administration and AUC0-∞po (time 0 to ∞) at the time of the oral administration by respective dose values to obtained as normalized values. Bioavailability (BA)=(AUC0-∞,po/dose)/(AUC0-∞,iv/dose) (3)

[5] = tested on: human aortic smooth muscle cells (T/G HA-VSMG); assay: Inducibility of cytoplasmic vacuolation in human aortic smooth muscle cells; format: cell-based; settings: Concentration: 1.0 mmol/L, Treatment time: 24 hours, sulfate monohydrate
Experimental: as §1

Cr1: CD (SD) rats = assay: Evaluation of safety in rat, two-week oral administration test; format: in vivo; settings: for findings in examination items: in vivo, po
Experimental: As a test compound, the compound of Example 11 or Comparative Example 2 was used. The compound of Example 11 or Comparative Example 2 was administered orally to Cr1: CD (SD) rats (7 weeks old, female and male; from Charles River Laboratories, Inc.), for 2 weeks. Clinical observation, body weight measurement, food intake measurement, ophthalmologic examination (the compound of Example 11, alone), hematological examination, blood chemistry examination, urinalysis, bone marrow examination, pathological anatomical examination, organ weight measurement, histopathological examination and immunotoxicity test were carried out. In addition, toxicokinetics (TK) measurement was carried out on Day 1 and Day 14 after administration. It was confirmed that each test compound was exposed. The administration dose of a test compound was specified as 0, 250, 500, 1000 mg/kg/day and administration volume was specified as 10 mL/kg. As an administration solvent, phosphate-buffered saline was used for the compound of Example 11 and distilled water was used for the compound of Comparative Example 2.

Row | SMILES | persistence of analgesic action [1] | time of strongest analgesic action after oral administration [1] | Inducibility of cytoplasmic vacuolation [2] | analgesic action in von Frey test (total score) [3] | bioavailability ([4]; 1 mg/kg oral vs 1 mg/kg intravenous, read-out: BA (bioavailability)) | clearance ([4]; intravenous administration 1 mg/kg, single, read-out: CLtot (total body clearance) (converted)) | AUC(0-inf) ([4]; oral administration 1 mg/kg, single) | Cmax ([4]; oral administration 1 mg/kg, single, read-out: Cmax (maximum plasma concentration)) | half-life ([4]; oral administration 1 mg/kg, single, read-out: t1/2 (elimination half-life in the plasma) (converted)) | Inducibility of cytoplasmic vacuolation [5] | findings in examination items (Cr1: CD (SD) rats; 250 mg/kg/day) | findings in examination items (Cr1: CD (SD) rats; 500 mg/kg/day) | no observed adverse effect level (Cr1: CD (SD) rats; oral, 2 weeks)
1 | CCn1ccnc1CCC(=O)N1CCC(N(C)C)CC1 [Comparative Example 3, 1-(4-(dimethylamino)piperidin-1-yl)-3-(1-ethyl-1H-imidazol-2-yl)propan-1-one hydrochloride] | tended to decrease 2 hours and 3 hours later | one | Present | statistically significant analgesic action |  |  |  |  |  |  |  |  | 
2 | CCCCn1ccnc1CCC(=O)N1CCC(N(C)C)CC1 [Comparative Example 5, 1-(4-(dimethylamino)piperidin-1-yl)-3-(1-butyl-1H-imidazol-2-yl)propan-1-one hydrochloride] | tended to decrease 2 hours and 3 hours later | one | Present | statistically significant analgesic action |  |  |  |  |  |  |  |  | 
3 | CCCn1ccnc1CCC(=O)N1CCC(N(C)C)CC1 [Comparative Example 4, 1-(4-(dimethylamino)piperidin-1-yl)-3-(1-propyl-1H-imidazol-2-yl)propan-1-one hydrochloride] | tended to decrease 2 hours and 3 hours later | one | Present | statistically significant analgesic action |  |  |  |  |  |  |  |  | 
4 | CN(C)C1CCN(C(=O)CCc2nccn2C)CC1 [Comparative Example 2, 1-(4-(dimethylamino)piperidin-1-yl)-3-(1-methyl-1H-imidazol-2-yl)propan-1-one sulfate monohydrate] |  |  | Present |  | 42.6% | 8.35 mL/min/kg | 849 ng·h/mL | 146 ng/mL | 6.56 h | has the inducibility of cytoplasmic vacuolation; also recorded: Present | abnormality was not observed | vacuolation was observed in e.g., the media of blood vessels of submandibular gland | 250 mg/kg/day

Reference: patent US10173999B2, “Cyclic amine derivative and pharmaceutical use thereof” (Toray Industries, Inc., priority 2015, dated 2019)
